Legend:
Type in all cases: physicochemical
[1] = Qualitative solubility in water
Method: A solution of 254 mg (2 mmol) of 1-methyl-4-nitropyrazole in 15 mL of warm water was mixed with a solution of 415 mg (1 mmol) of K2PtCl4 in 5 mL of water. The reaction mixture was maintained in darkness at 25 °C and monitored periodically by TLC until the absence of free ligand (app. 3 weeks). Then, the yellow precipitate was filtered off and dried, giving 480 mg (92%) of the crude mixture, which mainly consisted of two individual Pt complexes (TLC). […] Combustion and spectral analyses for the cis complex 1: Elemental analysis for formula C8H10N6O4Cl2Pt of compound 1: Calculated/Found (%): C 18.47/18.80, H 1.94/1.89, N 16.16/15.97, Cl 13.63/13.70. ^1H NMR (300.15 MHz, acetone-d6): δ[ppm] […] Combustion and spectral analyses for the trans complex 2: Elemental analysis for formula C8H10N6O4Cl2Pt of the trans-complex 2: Calculated/Found (%): C 18.47/18.76, H 1.94/1.84, N 16.16/15.86, Cl 13.63/13.93. ^1H NMR (300.15 MHz, acetone-d6): δ[ppm] […] Analysis of Mass Spectrum (ESI-MS) of both complexes 1 and 2: The calculated value of the parent peak mass for the formula C8H10N6O4Cl2Pt was 518.9789 u.

[2] = logP by shake-flask method (n-octanol / 0.9% NaCl, Pt by ICP-OES); conditions: octanol/water, n = 4
Method: An important factor for the pharmacokinetics and the cellular accumulation of the investigated complexes, their lipophilicity was determined by measuring octanol/water partition coefficients (logP) with the shake-flask method. The logP determination was carried out based on a previously described procedure, modified by us to obtain more accurate and repeatable results.
Weighted amounts of the tested platinum complex were suspended by 10 min sonification in 0.9% NaCl water solution, which was previously saturated with n-octanol, and mixed by shaking for 1 h. A simultaneously similar procedure was performed using 5 mL of n-octanol pre-saturated with 0.9% NaCl. Afterward, both suspensions were mixed together, shaken for an additional 1 h, and centrifuged for 5 min. After phase separation and evaporation in vacuo of 1 mL of sample to dryness, the final concentration of Pt was determined by ICP-OES (λ = 265.945 nm) and the partition coefficients were calculated. For the analysis, all samples were dissolved 1:1000 in 2.5% HCl. Each measurement was repeated four times and the final logP was calculated as the arithmetic mean of the four values.

[3] = Isomerization of complexes in solution; conditions: chloroform, acetone, DMSO, DMF
Description: Additionally, it is worth adding that complexation with 1-methyl-3-nitropyrazole, was unsuccessful, probably because of the steric hindrance of both methyl and nitro groups that constrain access to free pair of electrons of pyrazole nitrogen. Besides, the electrostatic repelling of the approaching tetrachloroplatinate anion by electron dense oxygen atoms of the nitro group may also be an important factor that can hinder and/or prevent the formation of a complex. […] The reason is that both symmetric and antisymmetric valence vibrations of cis Pt(II)complexes are active, contrary to trans isomers in which case only antisymmetric vibration is active.
A solution of 254 mg (2 mmol) of 1-methyl-5-nitropyrazole in 3 mL of acetone was mixed with a solution of 415 mg (1 mmol) of K2PtCl4 in 5 mL of water and maintained in darkness at 25 °C until the reaction completion (TLC, app. 3 days). […] Combustion and spectral analyses for the cis complex 3: Elemental analysis for formula C8H10N6O4Cl2Pt of compound 3: Calculated/Found (%): C 18.47/17.97, H 1.94/1.66, N 16.16/16.50, Cl 13.63/13.87. ^1H NMR (300.15 MHz, acetone-d6): δ[ppm] […] Combustion and spectral analyses for the trans complex 4: Elemental analysis for formula C8H10N6O4Cl2Pt of trans-complex 4: Calculated/Found (%): C 18.47/18.14, H 1.94/1.65, N 16.16/15.89, Cl 13.63/13.82. ^1H NMR (300.15 MHz, acetone-d6): δ[ppm] […]

| logP ± SD [2] | SMILES | solubility in water [1] | isomerization in solution [3] |
| --- | --- | --- | --- |
| 1.43 ± 0.16, | Cn1cc([N+](=O)[O-])c[n+]1[Pt@SP3-2]([Cl])([Cl])[n+]1cc([N+](=O)[O-])cn1C [Compound 2, trans-dichloridobis(1-methyl-4-nitropyrazole)platinum(II)] | very poorly in water | – |
| −0.31 ± 0.04 | Cn1c([N+](=O)[O-])cc[n+]1[Pt@SP2-2]([Cl])([Cl])[n+]1ccc([N+](=O)[O-])n1C [Compound 3, cis-dichloridobis(1-methyl-5-nitropyrazole)platinum(II)] | – | occurred slowly in chloroform or acetone solutions but much faster in more polar aprotic solvents (DMSO, DMF) |
| 0.46 ± 0.00 | Cn1c([N+](=O)[O-])cc[n+]1[Pt@SP3-2]([Cl])([Cl])[n+]1ccc([N+](=O)[O-])n1C [Compound 4, trans-dichloridobis(1-methyl-5-nitropyrazole)platinum(II)] | – | occurred slowly in chloroform or acetone solutions but much faster in more polar aprotic solvents (DMSO, DMF) |

| SMILES | logP ± SD [2] | solubility in water [1] | isomerization in solution [3] |
| --- | --- | --- | --- |
| Cn1cc([N+](=O)[O-])c[n+]1[Pt@SP2-2]([Cl])([Cl])[n+]1cc([N+](=O)[O-])cn1C [Compound 1, cis-dichloridobis(1-methyl-4-nitropyrazole)platinum(II)] | −0.35 ± 0.04 | poorly in water | – |
